The target of assay [1] is T1, α-adrenergic receptor (Rattus norvegicus, UniProt P43140).
T1 construct: Seminal vesicles were removed and transfered to a shallow dish containing modified Tyrode's solution; from tissue; host or cells: isolated seminal vesicle of male Long Evans rats
T1 sequence (P43140 1-466): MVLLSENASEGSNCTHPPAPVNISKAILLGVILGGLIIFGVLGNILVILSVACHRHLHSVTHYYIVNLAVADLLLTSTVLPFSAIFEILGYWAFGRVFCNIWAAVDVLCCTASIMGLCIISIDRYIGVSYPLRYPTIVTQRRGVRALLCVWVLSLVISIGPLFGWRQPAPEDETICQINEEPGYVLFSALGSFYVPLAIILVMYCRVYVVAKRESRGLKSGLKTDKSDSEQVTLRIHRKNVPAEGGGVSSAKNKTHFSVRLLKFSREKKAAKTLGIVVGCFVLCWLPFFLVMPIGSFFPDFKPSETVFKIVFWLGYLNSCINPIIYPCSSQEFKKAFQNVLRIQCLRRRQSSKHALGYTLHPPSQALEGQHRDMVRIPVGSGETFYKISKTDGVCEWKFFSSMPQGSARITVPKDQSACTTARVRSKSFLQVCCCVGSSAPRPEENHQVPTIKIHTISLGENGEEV
The assay is described as follows: Isolated rat seminal vesicle assay: inhibition of norepinephrine induced contractions. It counts as cell-based. The following applies: relative to prazosin; test compound 10 nanograms/ml; shift of norepinephrine ED50, rat seminal vesicle. The method, then: (§1) In the following table, antihypertensive acitvity was determined by oral administration to spontaneous hypertensive rats, and the in vitro and in vivo α-adrenergic receptor blocking effect was determined by tests described following the table. In the in vitro test, the inhibition by the test drug of norepinephrine induced contractions of rat seminal vesicles was measured; and in the in vivo test, the inhibition by the test drug of norepinephrine induced pressor responses in anesthetized dogs was measured.
Dangan et al., Int. j. […] Lietch et al., Brit.
Male Long Evans rats weighing approximately 300 g. were sacrificed by a sharp blow on the head. Seminal vesicles were removed and transfered to a shallow dish containing modified Tyrode's solution. The vesicles were emptied of their contents by squeezing them gently with a pair of forceps. Silk thread (4-0) was attached to both ends of the vesicle and it was suspended in a 20 ml. muscle chamber containing modified oxygenated Tyrode's solution (g./liter: NaCl 8, KCl 0.2, CaCl2 0.26, NaHCO3 1, Na2 HPO4 0.575, glucose 0.5 and MgCl2 0.02). The bathing fluid was maintained at 37° C. with a thermostatically controlled isolated organ tissue bath. Contractions were recorded isometrically by means of a force displacement transducer and recordings were made with a Beckman RP Dynograph. Norepinephrine (NE) was added to the muscle chamber in volumes ranging from 0.1 to 0.4 ml. with a 1 ml. syringe attached to a 3 inch 20 gauge needle. NE and test compounds were dissolved in deionized water.
NE dose response curves were obtained alone and in the presence of test compounds. NE was allowed to remain in contact with the strip until a maximal contraction was obtained. The strip was then washed with the perfusion fluid for 15-30 seconds and the preparation was allowed to return to base line before a subsequent dose of NE was given. Increasing amounts of NE were injected into the bath in the same manner until a complete dose response was obtained.
The seminal vesicles used to obtain the control NE dose response were discarded and new preparations were placed in the tissue bath for evaluation of the test compound. The test compound was added directly to the perfusion fluid (10 nanograms/ml.) and the strips were allowed to remain in contact with the bathing media for at least 10 minutes before the NE dose response was determined. Seminal vesicles from the same rat were used for control and for test drug.
ED50 values for NE were obtained by regression analysis as described by Finney, Probit, Analysis, 2d Ed., Cambridge (1964). A minimum of 4 strips and at least 4 doses were employed to calculate the regression lines. The ED50 value is defined as the concentration of NE which produces a contraction equal to 50% of the maximal contraction.

In assay [2] the test system is α-adrenergic receptor. The experiment in a line: Anesthetized dog assay for α-adrenergic blocking agents: inhibition of norepinephrine induced pressor responses. The following applies: relative to prazosin; test drug 3 mg./kg. iv; norepinephrine dose raising blood pressure by 50 mm. of Hg; anesthetized dogs. The class given is in vivo. As for the experimental part: as §1
Thus, blood pressure responses to norepinephrine (NE) in anesthetized dogs was used as a comparative assay for α-adrenergic receptor blocking properties of drugs.
Experiments were done on mongrel dogs anesthetized with sodium pentobarbital, 30 mg./kg. iv. The left femoral artery was cannulated to record aortic blood pressure and a femoral vein was cannulated for administration of drugs. All animals underwent a bilateral vagotomy. A norepinephrine dose-response curve was obtained by administering increasing doses of iv norepinephrine (0.01 - 1 μg./kg.). The test drug was then administered iv at 3 mg./kg. Approximately 30 minutes later a dose-response curve was again established for iv norepinephrine (0.01-10 μg./kg.).

The subject of assay [3] is spontaneous hypertensive rats. The assay is described as follows: Antihypertensive activity by oral administration to spontaneous hypertensive rats. The class given is in vivo, rat. The following applies: for change in vivo at 1 mg/kg / change in vivo at 3 mg/kg / change in vivo at 10 mg/kg: Rattus norvegicus, read-out: Antihypertensive Activity % Blood Pressure Change. As for the experimental part:
as §1

Setting [4] is: dose 1 mg/kg, oral, spontaneous hypertensive rats.
Where [5] appears, read: dose 3 mg/kg, oral, spontaneous hypertensive rats.
Setting [6] is: dose 10 mg/kg, oral, spontaneous hypertensive rats.
[7] abbreviates: oral, spontaneous hypertensive rats.

The source of these data is US4001237A, “Oxazole, isoxazole, thiazole and isothiazole amides” (priority 1976, dated 1977).

Each structure is given as a SMILES string. Where a name gives a salt, the structure may show the parent alone. Read-outs that look alike come from different tables or passages of the source.

Turning to `COc1cc2nc(N3CCN(C(=O)c4ccno4)CC3)nc(N)c2cc1OC` [Example 1, 4-Amino-6,7-dimethyoxy-2-[4-(isoxazole-5-carbonyl)-piperazine-1-yl]quinazoline Hydrochloride], the “α-Adrenergic Receptor Blocking Effect In Vitro Activity Ratio” value on α-adrenergic receptor [1] was 0.11. Also, in the assay on α-adrenergic receptor [2], the “α-Adrenergic Receptor Blocking Effect In Vivo Activity Ratio” value stood at 0.18. In addition, in assay [3] (setting [4]), the change in vivo at 1 mg/kg was -15%. The change in vivo at 3 mg/kg in assay [3] (setting [5]) is -26%. Further, in assay [3] (setting [6]), the change in vivo at 10 mg/kg is -35%.
For `COc1cc2nc(N3CCN(C(=O)c4ccon4)CC3)nc(N)c2cc1OC` [Example 2, 4-Amino-6,7-dimethoxy-2-[4-(isoxazole-3-carbonyl)-piperazin-1-yl]quinazoline Hydrochloride], the change in vivo at 1 mg/kg in assay [3] (setting [4]) is -12%. Besides, the change in vivo at 3 mg/kg in assay [3] (setting [5]) is -26%. The change in vivo at 10 mg/kg in assay [3] (setting [6]) was -32%.
Consider `COc1cc2nc(N3CCN(C(=O)c4cnoc4)CC3)nc(N)c2cc1OC.Cl` [Example 3, 4-Amino-6,7-dimethoxy-2-[4-(isoxazole-4-carbonyl)-piperazin-1-yl]quinazoline Hydrochloride], for which the “α-Adrenergic Receptor Blocking Effect In Vitro Activity Ratio” value at α-adrenergic receptor [1] worked out at 0.92. Moreover, the change in vivo at 1 mg/kg in assay [3] (setting [4]) is -13%. Also, the change in vivo at 3 mg/kg in assay [3] (setting [5]) was -23%. Moreover, the change in vivo at 10 mg/kg in assay [3] (setting [6]) is -35%.
Regarding `COc1cc2nc(N3CCN(C(=O)c4cc(C)on4)CC3)nc(N)c2cc1OC.Cl` [Example 4, 4-Amino-6,7-dimethoxy-2-[4-(5-methylisoxazole-3-carbonyl)piperazin-1-yl]quinazoline Hydrochloride], in the assay on α-adrenergic receptor [2], the “α-Adrenergic Receptor Blocking Effect In Vivo Activity Ratio” value stood at 0.24. Further, the change in vivo at 1 mg/kg in assay [3] (setting [4]) was -14%. For the same compound, in assay [3] (setting [5]), the change in vivo at 3 mg/kg is -18%. Also, the change in vivo at 10 mg/kg in assay [3] (setting [6]) is -41%.
`COc1cc2nc(N3CCN(C(=O)c4conc4C)CC3)nc(N)c2cc1OC.Cl` [Example 5, 4-Amino-6,7-dimethoxy-2-[4-(3-methylisoxazole-4-carbonyl)piperazin-1-yl]quinazoline Hydrochloride]: the “α-Adrenergic Receptor Blocking Effect In Vitro Activity Ratio” value on α-adrenergic receptor [1] came out at 0.30. Besides, the “α-Adrenergic Receptor Blocking Effect In Vivo Activity Ratio” value in the assay on α-adrenergic receptor [2] came to 0.18. Also, the change in vivo at 1 mg/kg in assay [3] (setting [4]) is -17%. The change in vivo at 3 mg/kg in assay [3] (setting [5]) was -29%. In addition, in assay [3] (setting [6]), the change in vivo at 10 mg/kg was -33%.
As for `COc1cc2nc(N3CCN(C(=O)c4cc(C)no4)CC3)nc(N)c2cc1OC.Cl` [Example 6, 4-Amino-6,7-dimethoxy-2-[4-(3-methylisoxazole-5-carbonyl)piperazin-1-yl]quinazoline Hydrochloride], the “α-Adrenergic Receptor Blocking Effect In Vitro Activity Ratio” value at α-adrenergic receptor [1] was 0.25. Besides, the change in vivo at 1 mg/kg in assay [3] (setting [4]) is -18%. In addition, the change in vivo at 3 mg/kg in assay [3] (setting [5]) is -21%. Further, the change in vivo at 10 mg/kg in assay [3] (setting [6]) is -37%.
As to `COc1cc2nc(N3CCN(C(=O)c4coc(C)n4)CC3)nc(N)c2cc1OC.Cl` [Example 8, 4-Amino-6,7-dimethoxy-2-[4-(2-methyloxazole-4-carbonyl)piperazin-1-yl]quinazoline Hydrochloride], the “α-Adrenergic Receptor Blocking Effect In Vitro Activity Ratio” value on α-adrenergic receptor [1] was 0.17. Besides, the change in vivo at 1 mg/kg in assay [3] (setting [4]) is -13%. Moreover, the change in vivo at 3 mg/kg in assay [3] (setting [5]) was -31%. For the same compound, in assay [3] (setting [6]), the change in vivo at 10 mg/kg was -35%.
For `COc1cc2nc(N3CCN(C(=O)c4ocnc4C)CC3)nc(N)c2cc1OC.Cl` [Example 9, 4-Amino-6,7-dimethoxy-2-[4-(4-methyloxazole-5-carbonyl)piperazin-1-yl]quinazoline Hydrochloride], on α-adrenergic receptor [1], the “α-Adrenergic Receptor Blocking Effect In Vitro Activity Ratio” value is on record as 0.19. Further, the change in vivo at 1 mg/kg in assay [3] (setting [4]) is -14%. Moreover, in assay [3] (setting [5]), the change in vivo at 3 mg/kg was -26%. Moreover, the change in vivo at 10 mg/kg in assay [3] (setting [6]) was -41%.
Regarding `COc1cc2nc(N3CCN(C(=O)c4cnsc4)CC3)nc(N)c2cc1OC.Cl` [Example 10, 4-Amino-6,7-dimethoxy-2-[4-(isothiazole-4-carbonyl)piperazin-1-yl)quinazoline Hydrochloride], the change in vivo at 1 mg/kg in assay [3] (setting [4]) was -14%. In assay [3] (setting [5]), the change in vivo at 3 mg/kg was -23%. The change in vivo at 10 mg/kg in assay [3] (setting [6]) was -25%. The “"plateauing" dose response effect on blood pressure lowering” value in assay [3] (setting [7]) is “maximum blood pressure lowering effect is seen at 3 mg./kg. which could not be increased at higher doses”.
Consider `COc1cc2nc(N3CCN(C(=O)c4nccs4)CC3)nc(N)c2cc1OC` [Example 11, 4-Amino-6,7-dimethoxy-2-[4-thiazole-2-carbonyl)piperazin-1-yl]quinazoline Hydrochloride], for which the change in vivo at 1 mg/kg in assay [3] (setting [4]) is -14%. For the same compound, the change in vivo at 3 mg/kg in assay [3] (setting [5]) was -27%. For the same compound, the change in vivo at 10 mg/kg in assay [3] (setting [6]) is -33%.
For `COc1cc2nc(N3CCN(C(=O)c4cscn4)CC3)nc(N)c2cc1OC` [Example 12], the “α-Adrenergic Receptor Blocking Effect In Vitro Activity Ratio” value at α-adrenergic receptor [1] turned out to be 0.12. Also, the change in vivo at 1 mg/kg in assay [3] (setting [4]) was -20%. In addition, the change in vivo at 3 mg/kg in assay [3] (setting [5]) was -24%. For the same compound, the change in vivo at 10 mg/kg in assay [3] (setting [6]) was -32%.
For the compound `COc1cc2nc(N3CCN(C(=O)c4csc(C)n4)CC3)nc(N)c2cc1OC` [Example 13, 4-Amino-6,7-dimethyoxy-2-[4-(2-methylthiazole-4-carbonyl)piperazin-1-yl]quinazoline Hydrochloride], on α-adrenergic receptor [1], the “α-Adrenergic Receptor Blocking Effect In Vitro Activity Ratio” value is 0.02. The change in vivo at 1 mg/kg in assay [3] (setting [4]) is -19%. In assay [3] (setting [5]), the change in vivo at 3 mg/kg is -28%. In addition, the change in vivo at 10 mg/kg in assay [3] (setting [6]) was -28%. Moreover, the “"plateauing" dose response effect on blood pressure lowering” value in assay [3] (setting [7]) is recorded as “maximum blood pressure lowering effect is seen at 3 mg./kg. which could not be increased at higher doses”.
Consider `COc1cc2nc(N3CCN(C(=O)c4cncs4)CC3)nc(N)c2cc1OC.Cl` [Example 14, 4-Amino-6,7-dimethoxy-2-[4-(thiazole-5-carbonyl)piperazin-1-yl]quinazoline Hydrochloride], for which the “α-Adrenergic Receptor Blocking Effect In Vitro Activity Ratio” value at α-adrenergic receptor [1] is reported as 0.10. Besides, the change in vivo at 1 mg/kg in assay [3] (setting [4]) was -12%. Moreover, in assay [3] (setting [5]), the change in vivo at 3 mg/kg is -22%. Moreover, the change in vivo at 10 mg/kg in assay [3] (setting [6]) was -33%.
For `COc1cc2nc(N3CCN(C(=O)c4scnc4C)CC3)nc(N)c2cc1OC.Cl` [Example 16, 4-Amino-6,7-dimethoxy-2-[4-(4-methylthiazole-5-carbonyl)piperazin-1-yl]quinazoline Hydrochloride] the same measures were 0.35, -4%, -22% and -28%.
In the case of `COc1cc2nc(N3CCN(C(=O)c4ccco4)CC3)nc(N)c2cc1OC` [Prazosin, 2-[4-(2-furoyl)-piperazin-1-yl]-4-amino-6,7-dimethoxyquinazoline, reference compound], in assay [3] (po), the change in vivo at 1 mg/kg is -14%, the change in vivo at 3 mg/kg is -29% and the change in vivo at 10 mg/kg is -42%.
